According to US6448378B2, “Compound delivery using rapidly dissolving collagen film” (priority 1998, dated 2002):

Key:
[1] = HPLC analysis of mitomycin solution stability; type: physicochemical; details: storage at ambient temperature and 4° C. in the dark
Procedure: In contrast to the stability of mitomycin in the collagen film, HPLC analysis of the mitomycin solution determined that stability was maintained for only 4 days following storage at ambient temperature and 4° C. in the dark. Dissolution and storage in 0.9% saline or phosphate buffer (pH 7.4) is not recommended due to degradation and precipitation.

[2] = system: human subconjunctival fibroblasts derived from Tenon's membrane; details: freshly prepared 0.4 mg/ml solution, dissolved in USP sterile water
Procedure: 6 mm diameter discs were cut from the film and applied to human subconjunctival fibroblasts derived from Tenon's membrane layered in 96 well plates (CSM supplemented with 10% fetal bovine serum). After 72 hours, mitomycin-induced inhibition of cell division was assessed by measuring the reduction in fluorescence intensity (RFU) using a fluorogenic CalceinAM assay (see, for example, Decherchi et al., J. Neurosci. Meth. 71: 205 (1997); Sugita, Pflitgers Arch. 429: 555 (1995); Padanilam et al., Ann. NY Acad. Sci. 720: 111 (1994); Lichtenfels et al., J. Immunol. Meth. 172: 227 (1994); and Wang et al., Human Immunol. 37: 264 (1993)).

## CO[C@@]12[C@H](COC(N)=O)C3=C(C(=O)C(C)=C(N)C3=O)N1C[C@@H]1N[C@@H]12 [mitomycin solution, mitomycin]
[1]
  time for which stability of the solution was maintained (HPLC): 4 days
[2]
  % cell death inhibition relative to the values of the mitomycin-collagen films (91%, 90%, 92%): comparable
